Experiment [1] has as its system CCRF-CEM. Briefly: Growth inhibition of human CCRF-CEM cells at 10^-5 M incubated for 48 hrs by sulforhodamine B assay relative to control. In kind it is functional. Particulars: read-out: GI. On the technique in general: The SRB assay estimates cell density from bound dye.
Experiment [2] deals with HL-60(TB). Briefly: Growth inhibition of human HL-60(TB) cells at 10^-5 M incubated for 48 hrs by sulforhodamine B assay relative to control. Format: functional. Particulars: HL-60, 48 h, read-out: GI.
For experiment [3], the system named is K562. Briefly: Growth inhibition of human K562 cells at 10^-5 M incubated for 48 hrs by sulforhodamine B assay relative to control. Conditions: K562, 48 h, read-out: GI. In kind it is functional.
In experiment [4] the test system is MOLT-4. Briefly: Growth inhibition of human MOLT4 cells at 10^-5 M incubated for 48 hrs by sulforhodamine B assay relative to control. In kind it is functional. Conditions: MOLT-4, 48 h, read-out: GI.
Experiment [5] relates to RPMI-8226. The experiment can be described thus: Growth inhibition of human RPMI8226 cells at 10^-5 M incubated for 48 hrs by sulforhodamine B assay relative to control. In kind it is functional. Particulars: RPMI-8226, 48 h, read-out: GI.
Experiment [6] relates to HOP-62. Briefly: Growth inhibition of human HOP62 cells at 10^-5 M incubated for 48 hrs by sulforhodamine B assay relative to control. Format: functional. Particulars: HOP-62, 48 h, read-out: GI.
In experiment [7] the test system is HOP-92. The experiment can be described thus: Growth inhibition of human HOP92 cells at 10^-5 M incubated for 48 hrs by sulforhodamine B assay relative to control. Format: functional. Particulars: HOP-92, 48 h, read-out: GI.
In experiment [8] the test system is NCI-H226. The experiment can be described thus: Growth inhibition of human NCI-H226 cells at 10^-5 M incubated for 48 hrs by sulforhodamine B assay relative to control. In kind it is functional. Particulars: NCI-H226, 48 h, read-out: GI.
The subject of experiment [9] is SF-539. The experiment can be described thus: Growth inhibition of human SF539 cells at 10^-5 M incubated for 48 hrs by sulforhodamine B assay relative to control. In kind it is functional. Particulars: SF-539, 48 h, read-out: GI.
For experiment [10], the system named is SNB-75. Briefly: Growth inhibition of human SNB75 cells at 10^-5 M incubated for 48 hrs by sulforhodamine B assay relative to control. Conditions: SNB-75, 48 h, read-out: GI. In kind it is functional.
For experiment [11], the system named is LOX IMVI. The experiment can be described thus: Growth inhibition of human LOXIMVI cells at 10^-5 M incubated for 48 hrs by sulforhodamine B assay relative to control. Conditions: read-out: GI. Format: functional.
In experiment [12] the test system is SK-MEL-5. Briefly: Growth inhibition of human SK-MEL-5 cells at 10^-5 M incubated for 48 hrs by sulforhodamine B assay relative to control. Format: functional. Conditions: SK-MEL-5, 48 h, read-out: GI.
For experiment [13], the system named is IGROV-1. Briefly: Growth inhibition of human IGROV1 cells at 10^-5 M incubated for 48 hrs by sulforhodamine B assay relative to control. In kind it is functional. Particulars: IGROV-1, 48 h, read-out: GI.
In experiment [14] the test system is A498. The experiment can be described thus: Growth inhibition of human A498 cells at 10^-5 M incubated for 48 hrs by sulforhodamine B assay relative to control. Format: functional. Conditions: A498, 48 h, read-out: GI.
The subject of experiment [15] is UO-31. The experiment can be described thus: Growth inhibition of human UO31 cells at 10^-5 M incubated for 48 hrs by sulforhodamine B assay relative to control. Format: functional. Conditions: UO-31, 48 h, read-out: GI.
Experiment [16] concerns PC-3. The experiment can be described thus: Growth inhibition of human PC3 cells at 10^-5 M incubated for 48 hrs by sulforhodamine B assay relative to control. Conditions: PC-3, 48 h, read-out: GI. In kind it is functional.
Experiment [17] deals with MCF7. Briefly: Growth inhibition of human MCF7 cells at 10^-5 M incubated for 48 hrs by sulforhodamine B assay relative to control. Particulars: MCF7, 48 h, read-out: GI. Format: functional.
Experiment [18] concerns MDA-MB-231. Briefly: Growth inhibition of human MDA-MB-231 cells at 10^-5 M incubated for 48 hrs by sulforhodamine B assay relative to control. Format: functional. Conditions: MDA-MB-231, 48 h, read-out: GI.
The subject of experiment [19] is T47D. Briefly: Growth inhibition of human T47D cells at 10^-5 M incubated for 48 hrs by sulforhodamine B assay relative to control. In kind it is functional. Conditions: read-out: GI.
Experiment [20] deals with MDA-MB-468. Briefly: Growth inhibition of human MDA-MB-468 cells at 10^-5 M incubated for 48 hrs by sulforhodamine B assay relative to control. Format: functional. Particulars: MDA-MB-468, 48 h, read-out: GI.
For experiment [21], the system named is HL-60. Briefly: Antiproliferative activity against human HL60 cells after 48 hrs by MTT assay. In kind it is functional, cell-based. Particulars: HL-60, 48 h.
The test system of experiment [22] is HL-60. The experiment can be described thus: Potency index, ratio of doxorubicin IC50 to compound IC50 for antiproliferative activity against human HL60 cells. In kind it is functional.
Experiment [23] has as its system HL-60. Briefly: Antiproliferative activity against human HL60 cells after 48 hrs by SRB assay. Format: functional. Conditions: HL-60, 48 h, read-out: LC50 (the source's name).
Experiment [24] concerns Bacillus subtilis. The experiment can be described thus: Antibacterial activity against Bacillus subtilis at 37 degC measured after 24 hrs by agar disc diffusion method. Format: functional. On the technique in general: Agar diffusion results depend on both activity and mobility in agar.
Experiment [25] deals with Bacillus subtilis. Briefly: Antibacterial activity against Bacillus subtilis at 37 degC measured after 24 hrs by CLSI M7-A4 protocol based method. In kind it is functional.
The subject of experiment [26] is Staphylococcus aureus. Briefly: Antibacterial activity against Staphylococcus aureus at 37 degC measured after 24 hrs by agar disc diffusion method. In kind it is functional.
For experiment [27], the system named is Escherichia coli. Briefly: Antibacterial activity against Escherichia coli at 37 degC measured after 24 hrs by agar disc diffusion method. Format: functional.
The subject of experiment [28] is Pseudomonas aeruginosa. The experiment can be described thus: Antibacterial activity against Pseudomonas aeruginosa at 37 degC measured after 24 hrs by agar disc diffusion method. Format: functional.
Experiment [29] concerns Pseudomonas aeruginosa. The experiment can be described thus: Antibacterial activity against Pseudomonas aeruginosa at 37 degC measured after 24 hrs by CLSI M7-A4 protocol based method. In kind it is functional.
Experiment [30] has as its system SK-OV-3. Briefly: Growth inhibition of human SKOV3 cells at 10^-5 M incubated for 48 hrs by sulforhodamine B assay relative to control. In kind it is functional. Conditions: SK-OV-3, 48 h, read-out: GI.
Experiment [31] has as its system UO-31. Briefly: Antiproliferative activity against human UO31 cells after 48 hrs by MTT assay. Format: functional, cell-based. Particulars: UO-31, 48 h. For orientation: Tetrazolium assays rely on reduction of a dye to a coloured formazan, in cell work by metabolically active cells.
Experiment [32] has as its system UO-31. Briefly: Potency index, ratio of doxorubicin IC50 to compound IC50 for antiproliferative activity against human UO31 cells. Format: functional.
In experiment [33] the test system is UO-31. The experiment can be described thus: Antiproliferative activity against human UO31 cells after 48 hrs by SRB assay. Conditions: UO-31, 48 h. In kind it is functional.

The structures appear in SMILES notation. In brackets after ≈: the same amount, converted by molar mass.

Turning to `O=C(CN1CCN(c2cc3c(cc2F)c(=O)c(C(=O)O)cn3C2CC2)CC1)N/N=C/c1c[nH]c2ccccc12`, the inhibition of growth at 10 µM in experiment [1] is 54.4%; in [2], 43%; in experiment [3], less than 20%; in experiment [4], 24.6%; in experiment [5], less than 20%; in [6] it was less than 20%. The inhibition of growth at 10 µM in experiment [7], in [8], in experiment [9], in experiment [10], in [11] and in experiment [12] was less than 20% throughout. The inhibition of growth at 10 µM in experiment [13] was less than 20%; in experiment [14], less than 20%; in experiment [15], 28.3%; in [16] it was less than 20%; in experiment [17], 27.1%; in [18], 20.9%. In addition, the inhibition of growth at 10 µM in [19] and in experiment [20] was less than 20% each time. This compound gave an IC50 in [21] of 1.55 µM. For the same compound, in experiment [22], the “Ratio IC50” value was 5.7. Besides, the CC50 in experiment [23] stood at 15.9 µM. For the same compound, the “diameter of the inhibition zone (DIZ)” value is reported as 37 mm in experiment [24], 31 mm in [26], 31 mm in experiment [27] and 33 mm in experiment [28]. In addition, the minimal inhibitory concentration (MIC) was 58 µg/mL (≈ 109 µM) in experiment [25] and 30 µg/mL (≈ 56.5 µM) in experiment [29].
In the case of `O=C(CSc1nnc(CN2CCN(c3cc4c(cc3F)c(=O)c(C(=O)O)cn4C3CC3)CC2)o1)c1ccccc1`, the inhibition of growth at 10 µM in experiment [4] is less than 20%; in experiment [6], less than 20%; in experiment [7], less than 20%; in [11], 25.3%; in experiment [15], 20.3%; in [16], 23.9%. Also, the inhibition of growth at 10 µM in [19] and in experiment [30] was less than 20% throughout.
With `O=C(CN1CCN(c2cc3c(cc2F)c(=O)c(C(=O)O)cn3C2CC2)CC1)N/N=C/c1ccc(O)cc1O`, in experiment [31], the IC50 turned out to be 3.19 µM. Moreover, the “Ratio IC50” value in experiment [32] is reported as 1.5 - 9. In experiment [33], this compound came in with an LC50 of 13 µM. Further, the “diameter of the inhibition zone (DIZ)” value in experiment [24] came to 24 mm; in experiment [26], 21 mm; in [27], 20 mm; in experiment [28], 23 mm.
In the case of `O=C(O)c1cn(C2CC2)c2cc(N3CCN(Cc4nnc(S)o4)CC3)c(F)cc2c1=O`, the inhibition of growth at 10 µM is 23% in experiment [4]; less than 20% in [6]; less than 20% in experiment [7]; less than 20% in [11]; less than 20% in experiment [15]; 23.4% in [16]. The inhibition of growth at 10 µM in experiment [19] and in [30] was less than 20% each time. In addition, the “diameter of the inhibition zone (DIZ)” value is given as 29 mm in [24], 24 mm in [26], 25 mm in experiment [27] and 27 mm in [28].
With `O=C(CN1CCN(c2cc3c(cc2F)c(=O)c(C(=O)O)cn3C2CC2)CC1)N/N=C/c1ccc(Cl)cc1`, the inhibition of growth at 10 µM in [1], in experiment [2], in [3], in experiment [4], in experiment [5] and in [6] was less than 20% throughout. Besides, the inhibition of growth at 10 µM in experiment [7], in [8], in experiment [9], in [10], in experiment [11] and in experiment [12] was less than 20% each time. The inhibition of growth at 10 µM was less than 20% in experiment [13]; 26.7% in experiment [14]; less than 20% in [15]; less than 20% in experiment [16]; less than 20% in [17]; less than 20% in experiment [18]. The inhibition of growth at 10 µM in experiment [19] and in experiment [20] was less than 20% each time. In addition, the “diameter of the inhibition zone (DIZ)” value in [24] is 30 mm; in experiment [26] it was 28 mm; in experiment [27], 28 mm; in experiment [28] it was 30 mm. Besides, the MIC in experiment [25] worked out at 62 µg/mL (≈ 118 µM); in [29] it was 60 µg/mL (≈ 114 µM).
In the case of `O=C(CSc1nnc(CN2CCN(c3cc4c(cc3F)c(=O)c(C(=O)O)cn4C3CC3)CC2)o1)c1ccc(Cl)cc1`, the inhibition of growth at 10 µM is less than 20% in [4]; 23.5% in [6]; 27.2% in experiment [7]; less than 20% in experiment [11]; less than 20% in [15]; less than 20% in experiment [16]. Further, the results for the inhibition of growth at 10 µM in experiment [19] and in experiment [30] were 23% and 20.9%, respectively.
As to `CSc1nnc(CN2CCN(c3cc4c(cc3F)c(=O)c(C(=O)O)cn4C3CC3)CC2)o1`, the inhibition of growth at 10 µM in experiment [4] is less than 20%; in [6] it was less than 20%; in experiment [7], less than 20%; in experiment [11] it was less than 20%; in experiment [15] it was less than 20%; in [16], 24.9%. The inhibition of growth at 10 µM in experiment [19] is 21.1%; in [30], less than 20%.

What is called IC50 is the midpoint of a concentration-inhibition curve. Low values mean greater potency in that assay, high ones weaker potency in that assay. The MIC is the least concentration at which growth counts as inhibited. Lower therefore signals a more susceptible organism. For orientation: LC50 means the concentration that kills 50% of the test population. Lower therefore signals a more lethal substance.

Source of the values: ChEMBL document CHEMBL4196087 (Eur J Med Chem, 2018).
